Results from patent US7378532B2, “Fused pyrazolyl compound” (Yung Shin Pharmaceutical Ind. Co., Ltd., priority 2004, dated 2008).

How the values were obtained:
[1] = system: Human lung cancer cells, NCI-H226; assay: Inhibition of cancer cell growth (sulforhodamine B assay); type: cell-based; settings: human lung cancer cells NCI-H226, 48 hr incubation, eight concentrations, SRB stain, absorbance 515 nm
Protocol: Human lung cancer cells, NCI-H226, were placed in 96-well microtiter plates (5,000 cells/100 μl/well). The plates were incubated at 37° C. under 5% CO2 and 95% air and 100% relative humidity for 24 hr. Cells in one plate were fixed in situ with trichloroacetic acid (TCA) to measure the cell population.
Compound 1 was dissolved in dimethylsulfoxide (DMSO) to give a solution at 400-fold the desired final maximum test concentration and stored frozen. An aliquot of the frozen DMSO solution was thawed and diluted to twice the desired final maximum test concentration. Additional ½ log serial dilutions were made to provide a total of eight concentrations. 100 μl aliquots of these different dilutions were added to the microtiter wells, resulting in the required final drug concentrations. After Compound 1 was added, the plates were incubated at 37° C. under 5% CO2 and 95% air and 100% relative humidity for an additional 48 hr. The cells were fixed in situ by slow addition of 50 μl of cold 50% (w/v) TCA and incubated at 4° C. for 60 minutes. The supernatant was removed, and the plates were gently washed twice with water and air-dried. […] The bound stain was subsequently solubilized with 10 mM trizma base, and absorbance was measured by an automated plate reader at the wavelength of 515 nm.

Row | melting point | Compound | inhibition of growth of NCI-H226 [1]
1 | – | O=C(O)CCC(=O)OCc1ccc(-c2nn(Cc3ccccc3)c3ccccc23)o1 [Compound 1, succinic acid mono-[5-(1-benzyl-1H-indazol-3-yl)-furan-2-ylmethyl]ester] | effectively inhibited growth of NCI—H226
2 | 126.3 to 129 °C | Cc1cc2c(o1)c(-c1ccc(COC(=O)CCC(=O)O)o1)nn2Cc1ccccc1 [Compound 7, succinic acid mono-[5-(1-benzyl-5-methyl-1H-furo[3,2-C]pyrazol-3-yl)-furan-2-ylmethyl]ester] | –
3 | 111 to 112.7 °C | O=C(O)CCC(=O)OCc1ccc(-c2nn(-c3ccc(Br)cc3)c3ccccc23)o1 [Compound 12, succinic acid mono-[5-(1-(4-bromo-phenyl)-1H-indazol-3-yl)-furan-2-ylmethyl]ester] | –
